Laboratory results published in patent US11746087B1, “C4-carboxylic acid-substituted tryptamine derivatives and methods of using” (priority 2022, dated 2023).
Where two headings read alike, the source gives them in different places.

Assays:
[1] = Mouse PK study (IV and PO), plasma parent compound and psilocin by LC-MS/MS; format: in vivo; settings: male, C57Bl/6, mouse, plasma; for AUC(0-t) / Cmax / Tmax / AUC(0-inf) / half-life / MRT inf: po, C(I) in plasma; for AUC(0-t): read-out: AUC0-tlast; for Cmax: read-out: Cmax; for Tmax: read-out: tmax; for AUC(0-inf): read-out: AUC0-inf; for half-life: read-out: Apparent t1/2 (converted); for MRT inf: read-out: MRT0-inf
Source text: Briefly, the procedure was as follows. […] 19, 2022.

[2] = target: T1, ADRA1A (Homo sapiens, UniProt P35348); experiment: Calcium secondary messenger assay, antagonist mode; format: cell-based
T1 sequence (P35348 1-466): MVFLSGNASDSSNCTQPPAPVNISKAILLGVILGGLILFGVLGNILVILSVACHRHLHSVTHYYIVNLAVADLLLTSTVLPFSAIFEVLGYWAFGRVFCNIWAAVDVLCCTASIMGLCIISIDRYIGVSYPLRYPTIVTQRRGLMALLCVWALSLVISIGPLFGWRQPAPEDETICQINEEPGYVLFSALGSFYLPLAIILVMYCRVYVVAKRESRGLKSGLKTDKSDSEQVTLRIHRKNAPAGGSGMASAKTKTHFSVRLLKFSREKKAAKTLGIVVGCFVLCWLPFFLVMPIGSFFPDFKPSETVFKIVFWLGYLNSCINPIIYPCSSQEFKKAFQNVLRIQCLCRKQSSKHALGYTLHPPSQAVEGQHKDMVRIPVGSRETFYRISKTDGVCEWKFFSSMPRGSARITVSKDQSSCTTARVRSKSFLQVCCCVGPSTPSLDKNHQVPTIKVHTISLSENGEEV

[3] = target: T2, ADRA2A (Homo sapiens, UniProt P08913); experiment: EFC-based cAMP secondary messenger assay, agonist mode; format: cell-based
T2 sequence (P08913 1-465): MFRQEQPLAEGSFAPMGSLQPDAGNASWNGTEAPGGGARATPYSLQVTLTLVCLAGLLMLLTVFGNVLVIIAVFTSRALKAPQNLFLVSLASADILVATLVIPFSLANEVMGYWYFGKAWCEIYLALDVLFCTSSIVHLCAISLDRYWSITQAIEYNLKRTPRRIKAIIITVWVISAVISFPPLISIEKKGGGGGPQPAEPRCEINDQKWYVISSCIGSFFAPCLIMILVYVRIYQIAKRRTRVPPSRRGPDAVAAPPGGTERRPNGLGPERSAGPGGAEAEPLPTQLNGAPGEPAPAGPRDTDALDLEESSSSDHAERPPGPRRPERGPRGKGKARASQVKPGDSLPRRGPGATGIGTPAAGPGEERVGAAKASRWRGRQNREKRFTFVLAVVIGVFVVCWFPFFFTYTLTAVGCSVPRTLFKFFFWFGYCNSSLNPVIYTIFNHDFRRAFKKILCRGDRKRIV

[4] = target: AVPR1A (Homo sapiens, UniProt P37288); experiment: Calcium secondary messenger assay, agonist mode; format: cell-based
Chain of AVPR1A (P37288 whole entry): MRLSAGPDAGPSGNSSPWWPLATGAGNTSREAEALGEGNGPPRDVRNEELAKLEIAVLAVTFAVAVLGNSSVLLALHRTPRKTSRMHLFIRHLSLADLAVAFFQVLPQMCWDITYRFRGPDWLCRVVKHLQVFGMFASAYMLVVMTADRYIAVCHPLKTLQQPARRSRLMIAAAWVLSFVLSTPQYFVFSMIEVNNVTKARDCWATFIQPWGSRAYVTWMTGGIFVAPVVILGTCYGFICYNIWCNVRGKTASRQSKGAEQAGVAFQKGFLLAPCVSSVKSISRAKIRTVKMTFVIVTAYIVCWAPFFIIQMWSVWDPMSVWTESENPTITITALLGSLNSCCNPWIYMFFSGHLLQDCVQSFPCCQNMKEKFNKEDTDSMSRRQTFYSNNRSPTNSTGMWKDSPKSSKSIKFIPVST

[5] = target: T3, CHRM2 (Homo sapiens, UniProt P08172); experiment: EFC-based cAMP secondary messenger assay, agonist mode; format: cell-based
T3 sequence (P08172 1-466): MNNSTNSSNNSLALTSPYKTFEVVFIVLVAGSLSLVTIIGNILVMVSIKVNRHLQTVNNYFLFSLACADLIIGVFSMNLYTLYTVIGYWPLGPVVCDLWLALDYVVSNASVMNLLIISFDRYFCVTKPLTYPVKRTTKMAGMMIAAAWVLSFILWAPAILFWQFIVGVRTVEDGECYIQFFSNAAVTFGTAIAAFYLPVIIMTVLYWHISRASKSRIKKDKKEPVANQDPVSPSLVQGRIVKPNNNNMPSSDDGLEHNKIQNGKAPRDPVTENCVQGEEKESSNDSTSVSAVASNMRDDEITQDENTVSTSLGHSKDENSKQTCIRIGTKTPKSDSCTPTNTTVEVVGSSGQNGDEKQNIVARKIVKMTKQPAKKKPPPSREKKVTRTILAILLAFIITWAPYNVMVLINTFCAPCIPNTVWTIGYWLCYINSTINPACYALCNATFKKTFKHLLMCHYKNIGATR

[6] = target: CNR1 (Homo sapiens, UniProt P21554); experiment: EFC-based cAMP secondary messenger assay, antagonist mode; format: cell-based
Chain of CNR1 (P21554 whole entry): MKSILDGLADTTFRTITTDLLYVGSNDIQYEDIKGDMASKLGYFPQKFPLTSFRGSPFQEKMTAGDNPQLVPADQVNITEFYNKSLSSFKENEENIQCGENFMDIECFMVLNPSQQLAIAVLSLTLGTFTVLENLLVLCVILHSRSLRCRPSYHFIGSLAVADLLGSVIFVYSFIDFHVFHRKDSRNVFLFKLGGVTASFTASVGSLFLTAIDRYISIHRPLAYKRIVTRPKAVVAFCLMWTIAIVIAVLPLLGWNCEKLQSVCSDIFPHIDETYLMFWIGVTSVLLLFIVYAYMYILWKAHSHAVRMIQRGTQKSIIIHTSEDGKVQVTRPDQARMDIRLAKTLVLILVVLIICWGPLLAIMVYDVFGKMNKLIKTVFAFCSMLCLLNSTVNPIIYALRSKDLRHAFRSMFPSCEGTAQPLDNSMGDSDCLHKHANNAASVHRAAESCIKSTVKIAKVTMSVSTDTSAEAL

[7] = target: DRD1 (Homo sapiens, UniProt P21728); experiment: as above; format: cell-based
Chain of DRD1 (P21728 whole entry): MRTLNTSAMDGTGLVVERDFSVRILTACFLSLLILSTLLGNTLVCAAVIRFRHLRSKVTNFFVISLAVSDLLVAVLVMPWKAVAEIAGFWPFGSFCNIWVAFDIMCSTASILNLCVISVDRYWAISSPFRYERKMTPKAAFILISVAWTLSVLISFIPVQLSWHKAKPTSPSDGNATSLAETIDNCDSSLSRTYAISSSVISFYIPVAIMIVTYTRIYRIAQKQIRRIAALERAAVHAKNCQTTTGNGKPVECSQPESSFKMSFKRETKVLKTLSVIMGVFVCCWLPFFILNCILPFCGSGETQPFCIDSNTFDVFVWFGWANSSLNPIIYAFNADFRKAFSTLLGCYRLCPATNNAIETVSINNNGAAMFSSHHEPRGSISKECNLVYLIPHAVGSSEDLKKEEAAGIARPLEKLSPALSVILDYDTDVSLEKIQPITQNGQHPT

[8] = target: T4, HTR1B (5-HTR1B) (Homo sapiens, UniProt P28222); experiment: EFC-based cAMP secondary messenger assay, agonist mode; format: cell-based
T4 sequence (P28222 whole entry): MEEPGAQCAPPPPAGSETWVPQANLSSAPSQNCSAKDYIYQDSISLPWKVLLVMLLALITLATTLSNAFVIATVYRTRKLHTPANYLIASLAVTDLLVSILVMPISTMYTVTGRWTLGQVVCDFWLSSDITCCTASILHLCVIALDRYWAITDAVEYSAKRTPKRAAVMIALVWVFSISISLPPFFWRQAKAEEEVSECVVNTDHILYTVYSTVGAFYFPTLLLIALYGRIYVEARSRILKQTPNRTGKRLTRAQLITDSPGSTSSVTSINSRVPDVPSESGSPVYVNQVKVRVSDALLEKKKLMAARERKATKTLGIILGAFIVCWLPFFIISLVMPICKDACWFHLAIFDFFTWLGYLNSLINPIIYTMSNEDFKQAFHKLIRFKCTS

[9] = target: T4, HTR1B (5-HTR1B); experiment: EFC-based cAMP secondary messenger assay, antagonist mode; format: cell-based
[10] = target: OPRD1 (Homo sapiens, UniProt P41143); experiment: EFC-based cAMP secondary messenger assay, agonist mode; format: cell-based
Chain of OPRD1 (P41143 whole entry): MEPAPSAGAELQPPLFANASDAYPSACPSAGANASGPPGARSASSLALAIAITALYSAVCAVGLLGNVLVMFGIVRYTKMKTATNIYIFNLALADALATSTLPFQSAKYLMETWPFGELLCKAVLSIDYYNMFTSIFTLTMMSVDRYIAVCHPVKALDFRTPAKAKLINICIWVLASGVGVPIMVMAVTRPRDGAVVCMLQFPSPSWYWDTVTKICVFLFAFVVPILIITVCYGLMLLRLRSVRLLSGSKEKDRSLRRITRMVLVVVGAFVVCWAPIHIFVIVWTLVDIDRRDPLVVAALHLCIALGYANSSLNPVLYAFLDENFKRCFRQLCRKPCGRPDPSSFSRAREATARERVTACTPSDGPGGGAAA

[11] = target: NMDAR (Homo sapiens, UniProt Q05586+Q13224); experiment: Ion channel assay (FLIPR membrane potential), blocker; format: cell-based
Chain of NMDAR (Q13224 27-1484, other chains not shown): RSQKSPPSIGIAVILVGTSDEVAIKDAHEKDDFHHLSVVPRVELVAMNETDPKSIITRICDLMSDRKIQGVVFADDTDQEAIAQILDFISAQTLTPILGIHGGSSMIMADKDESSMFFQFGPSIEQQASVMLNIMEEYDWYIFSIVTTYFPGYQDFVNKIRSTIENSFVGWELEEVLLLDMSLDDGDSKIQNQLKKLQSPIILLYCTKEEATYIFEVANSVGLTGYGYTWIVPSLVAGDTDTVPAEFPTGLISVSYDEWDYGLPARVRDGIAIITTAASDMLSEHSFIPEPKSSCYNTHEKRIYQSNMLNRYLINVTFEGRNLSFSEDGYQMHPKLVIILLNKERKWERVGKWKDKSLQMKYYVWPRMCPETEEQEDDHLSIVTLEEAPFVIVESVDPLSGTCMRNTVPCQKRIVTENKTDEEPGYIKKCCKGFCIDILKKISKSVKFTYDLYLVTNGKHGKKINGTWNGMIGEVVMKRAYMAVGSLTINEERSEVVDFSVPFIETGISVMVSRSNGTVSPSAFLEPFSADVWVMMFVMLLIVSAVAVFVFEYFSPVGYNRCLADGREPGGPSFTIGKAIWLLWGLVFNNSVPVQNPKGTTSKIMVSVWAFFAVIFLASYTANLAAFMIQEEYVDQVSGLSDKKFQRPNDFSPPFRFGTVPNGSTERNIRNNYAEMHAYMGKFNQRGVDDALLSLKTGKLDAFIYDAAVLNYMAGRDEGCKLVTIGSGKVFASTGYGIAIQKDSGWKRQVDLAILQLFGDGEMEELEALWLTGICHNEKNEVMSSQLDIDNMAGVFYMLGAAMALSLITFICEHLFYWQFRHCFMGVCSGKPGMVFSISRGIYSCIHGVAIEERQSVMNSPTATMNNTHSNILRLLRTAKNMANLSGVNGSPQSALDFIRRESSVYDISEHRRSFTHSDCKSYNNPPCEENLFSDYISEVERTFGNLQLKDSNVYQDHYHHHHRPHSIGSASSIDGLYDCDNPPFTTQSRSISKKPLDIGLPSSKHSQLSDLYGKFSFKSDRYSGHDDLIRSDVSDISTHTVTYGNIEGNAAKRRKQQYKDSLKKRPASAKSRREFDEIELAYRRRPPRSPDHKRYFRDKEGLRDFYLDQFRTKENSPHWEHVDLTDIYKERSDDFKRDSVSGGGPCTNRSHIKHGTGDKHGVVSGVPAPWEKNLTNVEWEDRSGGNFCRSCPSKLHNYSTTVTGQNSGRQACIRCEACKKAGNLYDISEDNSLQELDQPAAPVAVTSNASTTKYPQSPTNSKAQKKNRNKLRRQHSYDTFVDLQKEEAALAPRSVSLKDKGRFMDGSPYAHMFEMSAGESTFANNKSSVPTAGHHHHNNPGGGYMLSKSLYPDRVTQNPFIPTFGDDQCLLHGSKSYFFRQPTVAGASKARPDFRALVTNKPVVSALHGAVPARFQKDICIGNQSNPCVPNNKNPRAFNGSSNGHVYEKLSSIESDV

[12] = oral, 3 mg/kg, 3 mg/kg oral C(I), Mean ± SD, read-out: Plasma concentration of C(I)
[13] = oral, 3 mg/kg, 3 mg/kg oral C(I), per animal, BLQ <0.5 ng/mL, read-out: Plasma concentration of C(I)
[14] = oral, 10 mg/kg, 10 mg/kg oral C(I), Mean ± SD, read-out: Plasma concentration of C(I)
[15] = oral, 10 mg/kg, 10 mg/kg oral C(I), per animal, BLQ <0.5 ng/mL, read-out: Plasma concentration of C(I)
[16] = 1 mg/kg, 1 mg/kg oral C(I), Mean ± SD
[17] = 3 mg/kg, 3 mg/kg oral C(I), Mean ± SD
[18] = 3 mg/kg, 3 mg/kg oral C(I), mean (n = 1)
[19] = 3 mg/kg, 3 mg/kg oral C(I), per animal
[20] = 10 mg/kg, 10 mg/kg oral C(I), Mean ± SD
[21] = 10 mg/kg, 10 mg/kg oral C(I), mean (n = 2)
[22] = 10 mg/kg, 10 mg/kg oral C(I), per animal

## CN(C)CCc1c[nH]c2cccc(OC(=O)c3ccc(Br)cc3)c12 [C(I)]
[1]; oral, 1 mg/kg, 1 mg/kg oral C(I), per animal, BLQ <0.5 ng/mL, read-out: Plasma concentration of C(I)
  concentration at 4 h: 0.352 ng/mL
[1]; [12]
  concentration at 0.25 h: 2.03 ± 0.37 ng/mL
  concentration at 0.5 h: 2.03 ± 0.112 ng/mL
  concentration at 1 h: 1.54 ± 0.206 ng/mL
  concentration at 2 h: 0.786 ± 0.127 ng/mL
  concentration at 4 h: 0.907 ± 0.357 ng/mL
  concentration at 6 h: 0.31 ± 0.0605 ng/mL
[1]; [13]
  concentration at 0.25 h: 1.62 ng/mL
  concentration at 0.5 h: 1.95 ng/mL
  concentration at 1 h: 1.74 ng/mL
  concentration at 2 h: 0.932 ng/mL
  concentration at 6 h: 0.371 ng/mL
[1]; [14]
  concentration at 0.25 h: 5.67 ± 1.77 ng/mL
  concentration at 0.5 h: 8.14 ± 2.42 ng/mL
  concentration at 1 h: 5.51 ± 1.85 ng/mL
  concentration at 2 h: 2.59 ± 1.17 ng/mL
  concentration at 4 h: 2.26 ± 0.673 ng/mL
  concentration at 6 h: 0.89 ± 0.265 ng/mL
[1]; [15]
  concentration at 0.25 h: 7.2 ng/mL
  concentration at 0.5 h: 6.41 ng/mL
  concentration at 1 h: 3.79 ng/mL
  concentration at 4 h: 1.71 ng/mL
  concentration at 6 h: 0.83 ng/mL
[1]; oral, 10 mg/kg, 10 mg/kg oral C(I), 8 h, Mean ± SD, read-out: Plasma concentration of C(I)
  concentration at 8 h: 0.545 ± 0.481 ng/mL
[1]; [16]
  AUC(0-t): 1.34 ± 1.02 ng·h/mL
  Cmax: 0.877 ± 0.376 ng/mL
  Tmax: 30 min
[1]; 1 mg/kg, 1 mg/kg oral C(I), per animal
  Tmax: 30 min
[1]; [17]
  AUC(0-t): 5.54 ± 0.33 ng·h/mL
  Cmax: 2.15 ± 0.195 ng/mL
  Tmax: 25 ± 8.64 min
[1]; [18]
  AUC(0-inf): 6.87 ng·h/mL
  half-life: 181 min
  MRT inf: 4.12 h
[1]; 3 mg/kg, 3 mg/kg oral C(I), per animal, M43 estimate may not be accurate
  half-life: 181 min
[1]; [19]
  AUC(0-inf): 6.87 ng·h/mL
  AUC(0-t): 5.26 ng·h/mL
  Cmax: 1.95 ng/mL
  MRT inf: 4.12 h
  Tmax: 30 min
[1]; [20]
  AUC(0-t): 18.7 ± 4.25 ng·h/mL
  Cmax: 8.4 ± 2.17 ng/mL
  Tmax: 25 ± 8.64 min
[1]; [21]
  AUC(0-inf): 20.2 ng·h/mL
  half-life: 78.6 min
  MRT inf: 2.53 h
[1]; [22]
  AUC(0-inf): 16.3 ng·h/mL
  AUC(0-t): 15.8 ng·h/mL
  half-life: 87 min
  Cmax: 7.2 ng/mL
  MRT inf: 2.66 h
  Tmax: 15 min
[2]
  IC50: 6.59 µM
[3]
  EC50: > 100 µM
[4]
  EC50: > 100 µM
[5]
  EC50: > 100 µM
[6]
  IC50: > 100 µM
[7]
  IC50: 24.5 µM
[8]
  EC50: 2140 nM
[9]
  IC50: > 100 µM
[10]
  EC50: > 100 µM
[11]
  IC50: > 100 µM
